In patent US20250325402A1, “M[…] FOR I[…] METHODS OF USING THE SAME” ([…]., priority 2024, published 2025):

Experiments:
[1] = set-up: species or system pig
From the text: Ex vivo assessment of ocular biodistribution of ICG with OCLX-SCDD Proof of Concept (POC) prototypes and Clearside needles at 900 and 1100 μm in pig eyes.
In this non-GLP study, we evaluated the ability of OCLX-SCDD to deliver accurately to the suprachoroidal space (SCS) and determined the optimal needle length for effective delivery. […] Ex vivo testing involved a comparative analysis of the dye's ocular biodistribution between OCLX-SCDD POCs 1-4 and the established Clearside device, allowing us to determine whether the new design offers improved delivery accuracy and effectiveness. Forty pig eyes were obtained from a farm 1 day prior to testing and SC 120 μl injections (5 mg/ml) were performed (one supertemporal injection site/eye) with ICG. Needles used included 900 μm and 1100 μm length samples from both Oculogenex and Clearside (CLS-900 and CLS-1100). One hour after injection, dissection of the eyes was performed. Images were taken with an iPhone 15 Pro camera after removal of retina, RPE/Choroidal tissue. The ICG-stained area was measured by a masked reader with Image-pro Plus 6 (Media Cybernetisc, Rockville, MD, USA) to objectively assess ICG distribution through software.

[2] = In vivo ocular biodistribution of ICG with OCLX-SCDD POC4 and Clearside needles at 1100 μm; set-up: species or system Yucatan minipig; details: for ICG stained area, total coverage area: ICG 5 mg/ml SC, 1 h after injection
From the text: In Vivo assessment of ocular biodistribution of ICG with the OCLX-SCDD POC prototype and Clearside needles at 1100 μm in pig eyes.
Suprachoroidal injections enable precise, targeted delivery to the retina, retinal pigment epithelium (RPE), and choroid, potentially offering higher bioavailability to the diseased tissues while minimizing impact on anterior segment tissues. To improve the outcome of gene therapy for AMD through the SCS, we tested if the POC4 SCDD results in ICG dye at the back of the eye. […] This allows entrance into the suprachoroidal space in 4-month-old male minipigs (n=4). Indocyanine Green (ICG), 5 mg/ml, was injected using Clearside 1100 μm (OS) or POC4 of the OCLX-SCDD 1100 μm prototype device (OD) as follows: (1) Mark and confirm selected injection site; (2) Insert the microneedle, creating a small dimple on the ocular surface to allow the tissue to displace gently while the needle enters the suprachoroidal space; (3) Inject slowly and deliberately over 5 seconds to decrease discomfort; (4) After finishing the drug injection, hold the microinjector in place for an additional 3-5 seconds. Light pressure should be applied with a cotton swab after microinjector removal for about 5 seconds; and (5) Perform OCT imaging. (6) Euthanasia was performed according to the IACUC protocol, and 1 hour after injection, eyes were microdissected to assess ICG distribution.
The ICG stained area was measured with Image-pro Plus 6 equipment. […] One of four eyes injected with the OCLX-SCDD 1100 μm POC prototype device had trace amounts of ICG in the vitreous. Based on the results in FIG. 12, to avoid intravitreal injection, alpha prototypes were redesigned to have a shorter length, targeting 925 μm, and future pig studies were performed with this needle length.

[3] = set-up: species or system Yucatan minipig; details: minipig, in vivo
From the text: OCLX-SCDD alpha prototype targeting of the SC space with ICG in pig eyes (FIG. 12).
Suprachoroidal injections enable precise, targeted delivery to the retina, retinal pigment epithelium (RPE), and choroid, potentially offering higher bioavailability to the diseased tissues while minimizing impact on anterior segment tissues. To improve SC gene therapy outcomes for AMD, we tested the alpha prototype device to determine whether the SCDD results in ICG dye distribution to the posterior pole. […] Indocyanine Green (ICG) (5 mg/ml), OS: 120 μl or OD: 150 μl, was injected using the OCLX-SCDD 925 μm alpha prototype as follows: (1) Mark and confirm selected injection site; (2) Insert the microneedle, being sure to create a small dimple on the ocular surface to allow the tissue to displace gently while the needle enters the suprachoroidal space; (3) Inject slowly and deliberately for 5 seconds; (4) After finishing the drug injection, hold the microinjector in place for an additional 5 seconds. Light pressure should be applied with a cotton swab after microinjector removal for about 5 seconds; and (5) Check IOP after injection. […]
To evaluate the effect of SC injection, images were taken after removal of the retina and RPE/Choroidal tissue (FIG. 14). The ICG stained area was measured with Image-pro Plus 6. […]

OCLX-SCDD prototypes that delivered ICG dye to the SCS alone, no biodistribution to other ocular tissues [1]: 100% | Comparison of ICG-stained area between POC4 and Clearside 1100 μm device ([2]; 1 hour after SC injection and microdissection): no significant difference | ICG stained area, total coverage area ([2]; minipigs in vivo, device Clearside 1100 μm): 55% | ICG stained area, total coverage area ([2]; minipigs in vivo, device OCLX-SCDD POC4 1100 μm): 55% | Eyes with trace amounts of ICG in the vitreous ([2]; minipigs in vivo, device OCLX-SCDD 1100 μm POC prototype): One of four | Eyes with successful targeting of the SC space [3]: 100%
SMILES: CC1(C)C(/C=C/C=C/C=C/C=C2\N(CCCCS(=O)(=O)O)c3ccc4ccccc4c3C2(C)C)=[N+](CCCCS(=O)(=O)[O-])c2ccc3ccccc3c21 [ICG, Indocyanine Green]
